According to PubChem BioAssay AID1259407 (Chemical Carcinogenesis Research Information System (CCRIS), 2018):
Active and inactive are the calls of the source. No rule for the calls is given here.

System: CCRIS mutagenicity, Ames/micronucleus/aberration tests
Assay: CCRIS mutagenicity studies
[1] = Test System: AMES SALMONELLA TYPHIMURIUM, Strain/Indicator: TA98, Metabolic Activation: NONE, Method: STANDARD PLATE
[2] = Test System: AMES SALMONELLA TYPHIMURIUM, Strain/Indicator: TA100, Metabolic Activation: NONE, Method: STANDARD PLATE
[3] = Test System: AMES SALMONELLA TYPHIMURIUM, Strain/Indicator: TA1535, Metabolic Activation: NONE, Method: STANDARD PLATE
[4] = Test System: AMES SALMONELLA TYPHIMURIUM, Strain/Indicator: TA1537, Metabolic Activation: NONE, Method: STANDARD PLATE
[5] = Test System: AMES SALMONELLA TYPHIMURIUM, Strain/Indicator: TA1538, Metabolic Activation: NONE, Method: STANDARD PLATE
[6] = Test System: AMES SALMONELLA TYPHIMURIUM, Strain/Indicator: TA98, Metabolic Activation: NONE, Method: PREINCUBATION
[7] = Test System: AMES SALMONELLA TYPHIMURIUM, Strain/Indicator: TA100, Metabolic Activation: NONE, Method: PREINCUBATION
[8] = Test System: AMES SALMONELLA TYPHIMURIUM, Strain/Indicator: TA98, Metabolic Activation: RAT, LIVER, S-9, AROCLOR 1254, Method: STANDARD PLATE
[9] = Test System: AMES SALMONELLA TYPHIMURIUM, Strain/Indicator: TA100, Metabolic Activation: RAT, LIVER, S-9, AROCLOR 1254, Method: STANDARD PLATE

`CCN(C)C(=O)Oc1ccc2c(c1)C1(C)CCN(C)C1N2C` (stereo unspecified) was tested, and the mutagenic call (Test System: AMES SALMONELLA TYPHIMURIUM, Strain/Indicator: TA97, Metabolic Activation: NONE, Method: STANDARD PLATE) was “inactive; negative”, the mutagenic call (Test System: AMES SALMONELLA TYPHIMURIUM, Strain/Indicator: TA97, Metabolic Activation: S-9, Method: STANDARD PLATE) was “inactive; negative” and the mutagenic call [1] was “inactive; negative”. The mutagenic call (Test System: AMES SALMONELLA TYPHIMURIUM, Strain/Indicator: TA98, Metabolic Activation: S-9, Method: STANDARD PLATE) was “inactive; negative”, the mutagenic call [2] was “inactive; negative” and the mutagenic call (Test System: AMES SALMONELLA TYPHIMURIUM, Strain/Indicator: TA100, Metabolic Activation: S-9, Method: STANDARD PLATE) was “inactive; negative”. The mutagenic call (Test System: AMES SALMONELLA TYPHIMURIUM, Strain/Indicator: TA104, Metabolic Activation: NONE, Method: STANDARD PLATE) was “inactive; negative”, the mutagenic call (Test System: AMES SALMONELLA TYPHIMURIUM, Strain/Indicator: TA104, Metabolic Activation: S-9, Method: STANDARD PLATE) was “inactive; negative” and the mutagenic call [3] was “inactive; negative”. For the same compound, the mutagenic call (Test System: AMES SALMONELLA TYPHIMURIUM, Strain/Indicator: TA1535, Metabolic Activation: S-9, Method: STANDARD PLATE) was “inactive; negative”, the mutagenic call [4] was “inactive; negative” and the mutagenic call (Test System: AMES SALMONELLA TYPHIMURIUM, Strain/Indicator: TA1537, Metabolic Activation: S-9, Method: STANDARD PLATE) was “inactive; negative”. The mutagenic call [5] was “inactive; negative” and the mutagenic call (Test System: AMES SALMONELLA TYPHIMURIUM, Strain/Indicator: TA1538, Metabolic Activation: S-9, Method: STANDARD PLATE) was “inactive; negative”.

In the case of `CCN(CCC#N)c1cc(NC(C)=O)c(-n2nc3c(Br)cc(N)c(Cl)c3n2)cc1OC`, the mutagenic call (Test System: AMES SALMONELLA TYPHIMURIUM, Strain/Indicator: TA98, Metabolic Activation: RAT LIVER S-9, AROCLOR 1254, Method: STANDARD PLATE) is reported as “active; positive”, the mutagenic call (Test System: AMES SALMONELLA TYPHIMURIUM, Strain/Indicator: TA100, Metabolic Activation: RAT LIVER S-9, AROCLOR 1254, Method: STANDARD PLATE) is reported as “active; positive” and the mutagenic call (Test System: AMES SALMONELLA TYPHIMURIUM, Strain/Indicator: TA104, Metabolic Activation: RAT LIVER S-9, AROCLOR 1254, Method: STANDARD PLATE) is reported as “active; positive”. For the same compound, the mutagenic call (Test System: AMES SALMONELLA TYPHIMURIUM, Strain/Indicator: YG1024, Metabolic Activation: RAT LIVER S-9, PHENOBARBITAL, 5,6-BENZOFLAVONE (10%), Method: PREINCUBATION) was “active; positive”.

In the case of `Clc1nncc2ccccc12`, the mutagenic call [6] is reported as “inactive; negative”, the mutagenic call (Test System: AMES SALMONELLA TYPHIMURIUM, Strain/Indicator: TA98, Metabolic Activation: RAT, LIVER, S-9, PCB, Method: PREINCUBATION) is reported as “inactive; negative” and the mutagenic call [7] is reported as “inactive; negative”. For the same compound, the mutagenic call (Test System: AMES SALMONELLA TYPHIMURIUM, Strain/Indicator: TA100, Metabolic Activation: RAT, LIVER, S-9, PCB, Method: PREINCUBATION) was “inactive; negative”.

In the case of `O=C1CCC(=O)N1c1ccc(Cl)c(Cl)c1`, the mutagenic call [1] is reported as “inactive; negative”, the mutagenic call [8] is reported as “inactive; negative” and the mutagenic call [2] is reported as “inactive; negative”. For the same compound, the mutagenic call [9] was “inactive; negative”.

For `O=[N+]([O-])c1cc([N+](=O)[O-])c2ccc3cccc4ccc1c2c43`, the mutagenic call (End Point: IN VITRO CHROMOSOMAL ABERRATIONS, Test System: CHINESE HAMSTER LUNG (CHL) CELLS, Metabolic Activation: NONE) was “active; positive”, the mutagenic call (End Point: IN VITRO CHROMOSOMAL ABERRATIONS, Test System: CHINESE HAMSTER LUNG (CHL) CELLS, Metabolic Activation: RAT, LIVER, S-9, KC-400) was “active; positive” and the mutagenic call (Test System: AMES SALMONELLA TYPHIMURIUM, Strain/Indicator: TA98 (1,8-DNP6), Metabolic Activation: NONE, Method: STANDARD PLATE) was “active; positive”. The mutagenic call (Test System: AMES SALMONELLA TYPHIMURIUM, Strain/Indicator: TA98 (NR), Metabolic Activation: NONE, Method: STANDARD PLATE) was “active; positive”, the mutagenic call [6] was “active; positive” and the mutagenic call [1] was “active; positive”. The mutagenic call (Test System: AMES SALMONELLA TYPHIMURIUM, Strain/Indicator: TA98, Metabolic Activation: RAT, LIVER, S-9, PCB (10%), Method: PREINCUBATION) was “inactive; negative”, the mutagenic call [2] was “active; positive” and the mutagenic call (Test System: AMES SALMONELLA TYPHIMURIUM, Strain/Indicator: TA100, Metabolic Activation: RAT, LIVER, CYTOSOL, AROCLOR 1254, Method: STANDARD PLATE) was “active; positive”. For the same compound, the mutagenic call (Test System: AMES SALMONELLA TYPHIMURIUM, Strain/Indicator: TA100, Metabolic Activation: RAT, LIVER, CYTOSOL, Method: STANDARD PLATE) was “active; positive”, the mutagenic call (Test System: AMES SALMONELLA TYPHIMURIUM, Strain/Indicator: TA100, Metabolic Activation: RAT, LIVER, MICROSOMES, AROCLOR 1254, Method: STANDARD PLATE) was “active; positive” and the mutagenic call (Test System: AMES SALMONELLA TYPHIMURIUM, Strain/Indicator: TA100, Metabolic Activation: RAT, LIVER, MICROSOMES, Method: STANDARD PLATE) was “active; positive”. The mutagenic call [9] was “inactive; negative”, the mutagenic call (Test System: AMES SALMONELLA TYPHIMURIUM, Strain/Indicator: TA100, Metabolic Activation: RAT, LIVER, S-9, Method: STANDARD PLATE) was “active; positive” and the mutagenic call (Test System: AMES SALMONELLA TYPHIMURIUM, Strain/Indicator: TA7001, Metabolic Activation: NONE, Method: PREINCUBATION) was “active; positive”. For the same compound, the mutagenic call (Test System: AMES SALMONELLA TYPHIMURIUM, Strain/Indicator: TA7002, Metabolic Activation: NONE, Method: PREINCUBATION) was “active; positive”, the mutagenic call (Test System: AMES SALMONELLA TYPHIMURIUM, Strain/Indicator: TA7003, Metabolic Activation: NONE, Method: PREINCUBATION) was “active; positive” and the mutagenic call (Test System: AMES SALMONELLA TYPHIMURIUM, Strain/Indicator: TA7004, Metabolic Activation: NONE, Method: PREINCUBATION) was “active; positive”. For the same compound, the mutagenic call (Test System: AMES SALMONELLA TYPHIMURIUM, Strain/Indicator: TA7005, Metabolic Activation: NONE, Method: PREINCUBATION) was “active; positive”, the mutagenic call (Test System: AMES SALMONELLA TYPHIMURIUM, Strain/Indicator: TA7006, Metabolic Activation: NONE, Method: PREINCUBATION) was “active; positive” and the mutagenic call (Test System: UDS HUMAN HEPATOMA CELLS, Strain/Indicator: HEPG2/THY INCORP, Metabolic Activation: NONE) was “inactive; negative”.

For `O=c1cn[nH]c(=O)[nH]1`, the mutagenic call (Test System: AMES SALMONELLA TYPHIMURIUM, Strain/Indicator: TA98, Metabolic Activation: MAIZE SEEDLING, S-14, Method: PREINCUBATION) was “inactive; negative”, the mutagenic call (Test System: AMES SALMONELLA TYPHIMURIUM, Strain/Indicator: TA98, Metabolic Activation: MOUSE, LIVER, S-9, Method: PREINCUBATION) was “inactive; negative” and the mutagenic call [6] was “inactive; negative”. For the same compound, the mutagenic call [1] was “inactive; negative”, the mutagenic call [8] was “active; positive” and the mutagenic call (Test System: AMES SALMONELLA TYPHIMURIUM, Strain/Indicator: TA100, Metabolic Activation: MAIZE SEEDLING, S-14, Method: PREINCUBATION) was “inactive; negative”. For the same compound, the mutagenic call (Test System: AMES SALMONELLA TYPHIMURIUM, Strain/Indicator: TA100, Metabolic Activation: MOUSE, LIVER, S-9, Method: PREINCUBATION) was “inactive; negative”, the mutagenic call [7] was “inactive; negative” and the mutagenic call [2] was “inactive; negative”. The mutagenic call [9] was “inactive; negative”, the mutagenic call (Test System: AMES SALMONELLA TYPHIMURIUM, Strain/Indicator: TA1535, Metabolic Activation: NONE, Method: PREINCUBATION) was “inactive; negative” and the mutagenic call [3] was “inactive; negative”. For the same compound, the mutagenic call (Test System: AMES SALMONELLA TYPHIMURIUM, Strain/Indicator: TA1535, Metabolic Activation: RAT, LIVER, S-9, AROCLOR 1254, Method: STANDARD PLATE) was “inactive; negative”, the mutagenic call (Test System: AMES SALMONELLA TYPHIMURIUM, Strain/Indicator: TA1537, Metabolic Activation: NONE, Method: PREINCUBATION) was “inactive; negative” and the mutagenic call [4] was “inactive; negative”. The mutagenic call (Test System: AMES SALMONELLA TYPHIMURIUM, Strain/Indicator: TA1537, Metabolic Activation: RAT, LIVER, S-9, AROCLOR 1254, Method: STANDARD PLATE) was “inactive; negative”, the mutagenic call (Test System: AMES SALMONELLA TYPHIMURIUM, Strain/Indicator: TA1538, Metabolic Activation: NONE, Method: PREINCUBATION) was “inactive; negative” and the mutagenic call [5] was “inactive; negative”. For the same compound, the mutagenic call (Test System: AMES SALMONELLA TYPHIMURIUM, Strain/Indicator: TA1538, Metabolic Activation: RAT, LIVER, S-9, AROCLOR 1254, Method: STANDARD PLATE) was “active; positive”.
